What was measured:
[1] = tested on: human colorectal cancer organoids; experiment: Colony formation of sorted cells after camptothecin treatment of organoids; assay type: cell-based; settings: 50 nM; 1,000 sorted cells cultured; day 13 after sorting
Procedure: The human colorectal cancer organoids were treated with camptothecin (CPT) which is a topoisomerase inhibitor (50 nM). Subsequently, the LGR5-positive p27-positive cells, the LGR5-positive p27-negative cells, LGR5-negative p27-positive cells, and LGR5-negative p27-negative cells were sorted and collected with a cell sorter, and 1,000 cells of each type were cultured.
The numerical values in FIG. 4 show the number of colonies (average value±standard error). The scale bar is 1 mm.

[2] = tested on: COL17A1 KO human colorectal cancer organoids; experiment: Chemotherapy sensitivity of COL17A1 KO organoids; assay type: cell-based; settings: compared to COL17A1 WT and hetero KO organoids
From the text: The chemotherapy sensitivity of COL17A1 KO human colorectal cancer organoids was studied.

[3] = tested on: YAP signaling; experiment: Nuclear translocation of YAP in camptothecin-treated organoids (confocal); assay type: cell-based, human; settings: CCO7 and CCO32 strains, camptothecin treatment
From the text: The scale bar is 100 μm. The right side of FIG. 10 is a graph showing results of measuring the proportion of cells containing YAP that has undergone nuclear translocation based on the photographs on the left side of FIG. 10.

[4] = tested on: COL17A1, pFAK; experiment: Capillary-based immunoassay for COL17A1, pFAK and total FAK in camptothecin-treated organoids; assay type: cell-based, human; settings: camptothecin 50 nM; CCO7 and CCO32 strains
[5] = tested on: human colorectal cancer organoids (CCO32 strain); experiment: Camptothecin treatment with or without FAK inhibitor, proportion of LGR5-positive p27-positive cells; assay type: cell-based; settings: co-treatment with camptothecin; FAK inhibitor 10 nM, 24 hours / 10 μm as printed; camptothecin 5 days
Procedure: The scale bar is 100 μm. As a FAK inhibitor, PF573228 (CAS No. 869288-64-2) was used (10 μm). In FIG. 13, “FAKi” indicates a FAK inhibitor. FIG. 14 is a graph showing results of measuring the proportion of the LGR5-positive p27-positive cells when the human colorectal cancer organoids are treated or not treated with camptothecin for 5 days in the presence or absence of a FAK inhibitor. In FIG. 14, “N.S.” indicates no significant difference.

[6] = tested on: COL17A1 KO human colorectal cancer organoids; experiment: YAP signaling inhibitor on COL17A1 KO organoids, proportion of LGR5-positive p27-positive cells; assay type: cell-based; settings: 20 μM, 2 days
Procedure: A YAP signaling inhibitor was allowed to act on COL17A1 KO organoids to study an effect on dormancy of cancer stem cells. As a YAP signaling inhibitor, MYF-01-37 (CAS No. 2416417-65-5), a low-molecular-weight TEAD inhibitor (TEADi) that disrupts YAP/TAZ-TEAD protein-protein interactions, was used (20 μM, 2 days). […] The scale bar is 100 μm. The right side of FIG. 11 is a graph showing results of measuring the proportion of LGR5-positive p27-positive cells based on the photographs on the left side of FIG. 11.

[7] = tested on: Human colorectal cancer organoids (CCO32 strain); experiment: Experimental Example 14: organoid xenograft, TEAD inhibitor after irinotecan; assay type: in vivo, NOG mice
Procedure: The upper row in FIG. 18 is a schematic view showing a schedule of this experiment. Human colorectal cancer organoids (CCO32 strain) were xenotransplanted into the subcutis of immunodeficient NOG mice. Thereafter, irinotecan was administered once a week for three times, followed by administering a TEAD inhibitor over a long period of time to inhibit YAP signaling. Thereafter, administration of the TEAD inhibitor was discontinued. As a TEAD inhibitor, MYF-01-37 (CAS No. 2416417-65-5) was used.
The lower row in FIG. 18 is a group showing change in tumor size in mice of each group over time. In the lower row in FIG. 18, “Vehicle” indicates a result of a group into which only a solvent was administered, “TEADi” indicates a result of a group into which only a TEAD inhibitor was administered, “IRI” indicates a result of a group into which only irinotecan was administered, and “IRI+TEADi” indicates a result of a group into which irinotecan and a TEAD inhibitor were administered.

[8] = tested on: human colorectal cancer organoids xenotransplanted in mice; experiment: In vivo imaging of survival of LGR5-positive cells after irinotecan
Procedure: Whether or not the LGR5-positive p27-positive cells resistant to the chemotherapeutic agent contribute to relapse or recurrence of tumors after chemotherapy was studied in vivo. Specifically, irinotecan was administered to mice xenotransplanted with human colorectal cancer organoids, followed by in vivo imaging and genetic lineage-tracing of the LGR5-positive p27-positive cells and the LGR5-positive p27-negative cells over time.
FIG. 5 is a graph showing results obtained by measuring the survival rate of LGR5-positive p27-positive cells and LGR5-positive p27-negative cells after administration of irinotecan.

[9] = tested on: COL17A1 KO human colorectal cancer organoids xenotransplanted in mice; experiment: Tumor size after irinotecan in COL17A1 KO xenografts; assay type: in vivo; settings: COL17A1 KO vs COL17A1 WT xenografts
Procedure: Subsequently, irinotecan was administered to mice xenotransplanted with COL17A1 KO human colorectal cancer organoids, and the tumor size was measured over time. The upper row in FIG. 8 is a schematic view showing a schedule of this experiment. The lower row in FIG. 8 is a graph showing change in tumor size over time. […] In addition, indicates a significant difference at p<0.05.

[10] = tested on: Doxycycline-inducible YAP/TAZ-knockdown human colorectal cancer organoids; experiment: Experimental Example 12: doxycycline-inducible YAP/TAZ-knockdown organoid xenograft, irinotecan; assay type: in vivo, NOG mice; settings: irinotecan only
Procedure: The upper row in FIG. 15 is a schematic view showing a schedule of this experiment. Doxycycline-inducible YAP/TAZ-knockdown human colorectal cancer organoids were produced and xenotransplanted into the subcutis of immunodeficient NOG mice. Thereafter, irinotecan was administered. […] The scale bar is 100 μm. In the lower row in FIG. 15, “Control” indicates a result of a group into which neither irinotecan nor doxycycline has been administered, “Dox” indicates a result of a group into which only doxycycline was administered, “Irinotecan” indicates a result of a group into which only irinotecan was administered, and “Irinotecan +Dox” indicates a result of a group into which irinotecan and doxycycline were administered. FIG. 16 is a group showing change in tumor size in mice of each group over time. As a result, in FIG. 16, “Control,” “Dox,” “Irinotecan,” and “Irinotecan +Dox” show the same meaning as in the lower row in FIG. 15. In addition, “*” indicates a significant difference at p<0.05.

[11] = tested on: Doxycycline-inducible YAP/TAZ-knockdown human colorectal cancer organoids; experiment: Experimental Example 13: YAP/TAZ-knockdown organoid xenograft, doxycycline after irinotecan; assay type: in vivo, NOG mice; settings: irinotecan once a week for three times, no doxycycline
Procedure: How the inhibition of YAP signaling affects tumor regrowth after chemotherapy was studied. The upper row in FIG. 17 is a schematic view showing a schedule of this experiment. Doxycycline-inducible YAP/TAZ-knockdown human colorectal cancer organoids were produced and xenotransplanted into the subcutis of immunodeficient NOG mice. Thereafter, irinotecan was administered once a week for three times, followed by administering doxycycline over a long period of time to inhibit YAP signaling. Thereafter, administration of doxycycline was discontinued. The lower row in FIG. 17 is a group showing change in tumor size in mice of each group over time. In the lower row in FIG. 17, “Irinotecan” indicates a result of the group into which only irinotecan was administered, and “Irinotecan +Dox” indicates a result of the group into which irinotecan and doxycycline were administered.

[12] = irinotecan only, no TEAD inhibitor

**Q.** How did the “colony formation of LGR5-positive p27-negative cells after camptothecin treatment” value [1] turn out when `CC[C@@]1(O)C(=O)OCc2c1cc1n(c2=O)Cc2cc3ccccc3nc2-1` [camptothecin] was run?
**A.** showed no colony formation

**Q.** And the “colony formation of LGR5-positive p27-positive cells after camptothecin treatment” value [1]?
**A.** showed colony formation

**Q.** And the “sensitivity of COL17A1 KO organoids to camptothecin” value [2]?
**A.** more sensitive

**Q.** And the “YAP signaling (nuclear translocation of YAP) in LGR5-positive p27-positive cells” value [3]?
**A.** activates YAP signaling

**Q.** What about the “expression of COL17A1” value [4] of the same compound?
**A.** expression of COL17A1 was deleted

**Q.** What about the “phosphorylation of FAK” value [4] of the same compound?
**A.** phosphorylation of FAK occurred

**Q.** How did the “cell cycle reentry of LGR5-positive p27-positive cells after camptothecin exposure” value [5] turn out when `CS(=O)(=O)c1cccc(CNc2nc(Nc3ccc4c(c3)CCC(=O)N4)ncc2C(F)(F)F)c1` [PF573228] was run?
**A.** inhibited cell cycle reentry

**Q.** `C=CC(=O)N1CCC(C)(Nc2cccc(C(F)(F)F)c2)C1` (stereo not shown) [MYF-01-37] was tested. Which “p27-positive cells in COL17A1 KO organoids” value [6] did it give?
**A.** led to reappearance of p27-positive cells

**Q.** And the tumor size ([7]; TEAD inhibitor after irinotecan (once a week for three times))?
**A.** tumor size was reduced to a minimum

**Q.** What about the tumor inhibition effect ([7]; TEAD inhibitor alone) of the same compound?
**A.** did not show any tumor inhibition effect

**Q.** How did the “survival of LGR5-positive p27-negative cells after administration of irinotecan” value [8] turn out when `CCc1c2c(nc3ccc(OC(=O)N4CCC(N5CCCCC5)CC4)cc13)-c1cc3c(c(=O)n1C2)COC(=O)[C@]3(O)CC` [irinotecan] was run?
**A.** disappeared during an observation period

**Q.** What about the “survival of LGR5-positive p27-positive cells after administration of irinotecan” value [8] of the same compound?
**A.** tolerated chemotherapy and remained

**Q.** What about the “tumor regeneration after administration of irinotecan” value [9] of the same compound?
**A.** more inhibited in COL17A1 KO xenografts than in COL17A1 WT xenografts

**Q.** And the “therapeutic effect (tumor size over time)” value [10]?
**A.** transient

**Q.** And the “nuclear translocation of YAP in graft” value ([10]; three days from administration, immunostaining)?
**A.** resulted in nuclear translocation of YAP in vivo

**Q.** And the “therapeutic effect (tumor size over time)” value [11]?
**A.** transient therapeutic effect

**Q.** What about the “time of cancer regrowth” value [11] of the same compound?
**A.** ~40 days

**Q.** What about the “therapeutic effect (tumor size over time)” value [7, 12] of the same compound?
**A.** transient therapeutic effect

**Q.** What about the “time of cancer regrowth” value [7, 12] of the same compound?
**A.** ~40 days
